Results on 17 compounds are retold here after patent publication US20220289746A1, “PYRROLIDINE DERIVATIVES” (Hoffmann-La Roche Inc., priority 2019, published 2022).

Experiment [1] concerns the target T1, human M4 receptor (Homo sapiens, UniProt P08173).
T1 sequence (P08173 1-479): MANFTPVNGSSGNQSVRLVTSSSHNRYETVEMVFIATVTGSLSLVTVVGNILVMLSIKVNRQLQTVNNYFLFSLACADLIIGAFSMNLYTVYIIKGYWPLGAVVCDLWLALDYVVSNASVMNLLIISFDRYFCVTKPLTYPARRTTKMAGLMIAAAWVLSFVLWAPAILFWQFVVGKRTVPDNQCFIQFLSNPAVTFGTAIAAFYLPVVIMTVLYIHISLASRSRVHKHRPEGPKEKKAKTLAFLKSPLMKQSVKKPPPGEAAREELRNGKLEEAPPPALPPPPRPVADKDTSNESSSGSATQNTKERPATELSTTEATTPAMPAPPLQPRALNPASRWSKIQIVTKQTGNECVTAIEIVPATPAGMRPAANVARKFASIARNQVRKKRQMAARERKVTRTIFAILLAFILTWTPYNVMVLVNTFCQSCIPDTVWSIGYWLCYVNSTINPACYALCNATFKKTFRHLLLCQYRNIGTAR
Briefly: Calcium flux assay using fluorescent imaging (M4 PAM FLIPR assay). It counts as cell-based. Set-up: expressed in transfected cells; host or cells: CHO (monoclonal line, clone 2). The following applies: Table 1; CHO cells expressing human M4+Gqi5; acetylcholine EC20. As for the experimental part: CHO cells were transfected with expression plasmid encoding the human M4 receptor and a Gqi5 construct to redirect Gi signaling to calcium. Stable cells were cloned by limiting dilution to yield a monoclonal cell line expressing human M4+Gqi5 (clone 2). The stable cells were grown in DMEM containing 10% FBS, 200 ug/ml Geneticin and 800 ug/ml Hygromycin at 37° C. in a 10% CO2 incubator at 95% humidity.
Calcium Flux Assay Using Fluorescent Imaging (“M4 PAM FLIPR” Assay)
On the afternoon before the assay, cells were plated at a density of 50,000 cells/well into black 96 well plates with clear bottoms to yield a confluent monolayer the next day. Hanks balanced salt solution, without phenol red, containing 20 mM HEPES (pH 7.3) and 2.5 mM probenecid (assay buffer) was prepared fresh for each experiment. Compound dilutions were made using a Beckman Biomek 2000 laboratory automation workstation, in assay buffer. The dye-loading buffer consisted of a final concentration of 2 μM Fluo-4-AM (dissolved in DMSO and pluronic acid) and 65 μg/ml amidoblack in assay buffer. The existing culture media was removed from the wells and 100 μl of the dye-loading buffer was added to each well and incubated for approximately 90 min at 37° C. in a 5% CO2 incubator at 95% humidity.
Calcium flux in the dye-loaded cells was measured with the fluorescence reader Hamamatsu FDSS 7000. To test compounds as agonists, compound addition (25 μl) was made 10 s into the fluorescent measurements and fluorescent response was recorded for 3 minutes. The fluorescence data was expressed as percentage of the fluorescence obtained by an EC100 concentration (3 μM) of the endogenous full agonist acetylcholine. Each test compound concentration-response curve was constructed using a four parameter logistic equation in Microsoft Excel XLFit as follows:
Y=Minimum+((Maximum−Minimum)/(1+10^(LogEC50−X)nH)).
The concentration of agonist that produced a half-maximal response is represented by the EC50 value. Maximum and minimum are the maximum and minimum fluorescence signal in % respectively. nH is the Hill slope.
To measure positive allosteric modulator activity 25 μl of an EC20 concentration of the endogenous agonist acetylcholine is added to the cells already pre-incubated with the test compound for 15 minutes.
The M4 PAM dose response is constructed using the agonist dose-response equation above. The concentration of PAM that produced a half-maximal response is represented by the EC50 value and the maximum signal measured is the PAM efficacy expressed in % of the EC100 (3 μM) acetylcholine response. • cAMP Assay for M4 Positive Allosteric Modulators (“M4 PAM cAMP” Assay)

Experiment [2] deals with T1, human M4 receptor. Briefly: cAMP assay for M4 positive allosteric modulators (M4 PAM cAMP assay). The format is cell-based. Set-up: expressed in transfected cells; host or cells: CHO-K1. To be noted: Table 1; CHO-K1 cells expressing human M4; forskolin 7.5 μM + acetylcholine EC20 (0.2 nM). The method, then:
The potency of M4 PAMs was determined using a cell-based cyclic adenosine monophosphate assay. The assay was performed with CHO-Kl cells stably expressing untagged human M4 receptor and cAMP was quantified using the Nano-TRF Detection Assay kit (Roche, Cat. No. 05214386) as described in the kit instructions. The cells were grown in Ham's F-12 Nutrient mix supplemented with 10% FBS and 200 μg/ml geneticin until they reached 80% confluency. The cells were washed with PBS, detached with accutase and resuspended in assay buffer consisting of HBSS and 0.1% BSA. They were then seeded in black 384-well plates (Corning, Cat. No. 3764) at a density of 20,000 cells/20 μl per well until the addition of compounds.
Test compounds were serially diluted 1:2 in 100% DMSO and spotted in 384-well plates at 0.5 μl/well. The compounds were then diluted in water containing IBMX (Sigma, Cat. No. 17018) and a sample (5 μl) was added to the cells for 15 minutes at 37° C./5% CO2. After this incubation the cells were stimulated with a combination of forskolin (7.5 μM) and acetylcholine EC20 (0.2 nM) in assay buffer for 30 minutes at 37° C./5% CO2. The assay was stopped by adding cAMP detection mix (15 μl/well, containing detergents for cell lysis) for one hour at RT.
The test plates were read using a SpectraMax i3x reader (Molecular Devices). The exported raw data was used to calculate the FRET signal based on the P-factor as per cAMP kit instructions. The data was normalized to the activity of acetylcholine plus forskolin, with 2 nM of acetylcholine plus 7.5 μM forskolin defined as 100% activity. Dose response curves were fitted to the percent activity data of the compounds using a sigmoidal dose response model (XLfit, IDBS) and the data were reported as EC50 and percent efficacy.

For the compound `Cc1nc2c(c(C)c1Cl)CN(C(=O)[C@@H]1CCN(c3cc(C(F)(F)F)ncn3)C1)C2` [Example 27, (3-chloro-2,4-dimethyl-5,7-dihydropyrrolo[3,4-b]pyridin-6-yl)-[(3R)-1-[6-(trifluoromethyl)pyrimidin-4-yl]pyrrolidin-3-yl]methanone], the EC50 in experiment [1] is 330 nM; in experiment [2], 230 nM.

In the case of `COc1cncc(N2CC[C@@H](C(=O)N3Cc4nc(C)c(Cl)c(C)c4C3)C2)c1` [Example 18, (3-chloro-2,4-dimethyl-5,7-dihydropyrrolo[3,4-b]pyridin-6-yl)-[(3R)-1-(5-methoxy-3-pyridyl)pyrrolidin-3-yl]methanone], the concentration giving a half-maximal response (EC50) amounted to 549 nM in experiment [1] and 166 nM in experiment [2].

Turning to `Cc1nc2c(c(C)c1Cl)CN(C(=O)[C@@H]1CCN(c3ccnc(C#N)n3)C1)C2` [Example 24, 4-[(3R)-3-(3-chloro-2,4-dimethyl-5,7-dihydropyrrolo[3,4-b]pyridine-6-carbonyl)pyrrolidin-1-yl]pyrimidine-2-carbonitrile], the values for the EC50 in experiment [1] and in experiment [2] were 235 nM and 164 nM, respectively.

On to `COc1cc(N2CC[C@@H](C(=O)N3Cc4nc(C)c(Cl)c(C)c4C3)C2)ccn1` [Example 22, (3-chloro-2,4-dimethyl-5,7-dihydropyrrolo[3,4-b]pyridin-6-yl)-[(3R)-1-(2-methoxy-4-pyridyl)pyrrolidin-3-yl]methanone], for which the results for the concentration giving a half-maximal response (EC50) in experiment [1] and in experiment [2] were 677 nM and 507 nM, respectively.

As for `Cc1ccnc(N2CC[C@@H](C(=O)N3Cc4nc(C)c(Cl)c(C)c4C3)C2)n1` [Example 49, (3-chloro-2,4-dimethyl-5,7-dihydropyrrolo[3,4-b]pyridin-6-yl)-[(3R)-1-(4-methylpyrimidin-2-yl)pyrrolidin-3-yl]methanone], the values for the EC50 in experiment [1] and in experiment [2] were 1670 nM and 3350 nM, respectively.

Take `Cc1cnc(N2CC[C@@H](C(=O)N3Cc4nc(C)c(Cl)c(C)c4C3)C2)nc1` [Example 8, (3-chloro-2,4-dimethyl-5,7-dihydropyrrolo[3,4-b]pyridin-6-yl)-[(3R)-1-(5-methylpyrimidin-2-yl)pyrrolidin-3-yl]methanone]: the results for the EC50 in experiment [1] and in experiment [2] were 2350 nM and 5270 nM, respectively.

In the case of `COc1cncc(N2CC[C@@H](C(=O)N3Cc4nc(C)c(Cl)c(C)c4C3)C2)n1` [Example 42, (3-chloro-2,4-dimethyl-5,7-dihydropyrrolo[3,4-b]pyridin-6-yl)-[(3R)-1-(6-methoxypyrazin-2-yl)pyrrolidin-3-yl]methanone], the EC50 came to 577 nM in experiment [1] and 2080 nM in experiment [2].

For `Cc1nc2c(c(C)c1Cl)CN(C(=O)[C@@H]1CCN(c3cnc(N(C)C)nc3)C1)C2` [Example 36, (3-chloro-2,4-dimethyl-5,7-dihydropyrrolo[3,4-b]pyridin-6-yl)-[(3R)-1-[2-(dimethylamino)pyrimidin-5-yl]pyrrolidin-3-yl]methanone], the concentration giving a half-maximal response (EC50) in experiment [1] came to 1800 nM; in experiment [2], 1720 nM.

In the case of `Cc1nc2c(c(C)c1Cl)CN(C(=O)[C@@H]1CCN(c3cncnc3)C1)C2` [Example 30, (3-chloro-2,4-dimethyl-5,7-dihydropyrrolo[3,4-b]pyridin-6-yl)-[(3R)-1-pyrimidin-5-ylpyrrolidin-3-yl]methanone], the values for the half-maximal effective concentration (EC50) in experiment [1] and in experiment [2] were 59 nM and 65 nM, respectively.

Take `CNc1ccc(N2CC[C@@H](C(=O)N3Cc4nc(C)c(Cl)c(C)c4C3)C2)cn1` [Example 11, (3-chloro-2,4-dimethyl-5,7-dihydropyrrolo[3,4-b]pyridin-6-yl)-[(3R)-1-[6-(methylamino)-3-pyridyl]pyrrolidin-3-yl]methanone]: the results for the EC50 in experiment [1] and in experiment [2] were 1360 nM and 446 nM, respectively.

Regarding `COCc1nc2c(c(C)c1Cl)CN(C(=O)[C@@H]1CCN(c3cncnc3)C1)C2` [Example 58, [3-chloro-2-(methoxymethyl)-4-methyl-5,7-dihydropyrrolo[3,4-b]pyridin-6-yl]-[(3R)-1-pyrimidin-5-ylpyrrolidin-3-yl]methanone], the EC50 in experiment [1] was 74 nM; in experiment [2] it was 179 nM.

Turning to `Cc1nc2c(c(C)c1Cl)CN(C(=O)[C@@H]1CCN(c3cnc(C(F)(F)F)nc3)C1)C2` [Example 32, (3-chloro-2,4-dimethyl-5,7-dihydropyrrolo[3,4-b]pyridin-6-yl)-[(3R)-1-[2-(trifluoromethyl)pyrimidin-5-yl]pyrrolidin-3-yl]methanone], the figures for the EC50 in experiment [1] and in experiment [2] were 1950 nM and 1940 nM, respectively.

With `COc1nccc(N2CC[C@@H](C(=O)N3Cc4nc(C)c(Cl)c(C)c4C3)C2)n1` [Example 25, (3-chloro-2,4-dimethyl-5,7-dihydropyrrolo[3,4-b]pyridin-6-yl)-[(3R)-1-(2-methoxypyrimidin-4-yl)pyrrolidin-3-yl]methanone], the half-maximal effective concentration (EC50) in experiment [1] stood at 1600 nM; in experiment [2], 4770 nM.

For the compound `Cc1nc2c(c(C)c1Cl)CN(C(=O)[C@@H]1CCN(c3cncc(C(F)(F)F)c3)C1)C2` [Example 14, (3-chloro-2,4-dimethyl-5,7-dihydropyrrolo[3,4-b]pyridin-6-yl)-[(3R)-1-[5-(trifluoromethyl)-3-pyridyl]pyrrolidin-3-yl]methanone], the EC50 in experiment [1] worked out at 3520 nM; in experiment [2], 2180 nM.

On to `Cc1nc2c(c(C)c1Cl)CN(C(=O)[C@@H]1CCN(c3ccnc(C(F)(F)F)c3)C1)C2` [Example 21, (3-chloro-2,4-dimethyl-5,7-dihydropyrrolo[3,4-b]pyridin-6-yl)-[(3R)-1-[2-(trifluoromethyl)-4-pyridyl]pyrrolidin-3-yl]methanone], for which the EC50 was 550 nM in experiment [1] and 131 nM in experiment [2].

Consider `Cc1nc2c(c(C)c1Cl)CN(C(=O)[C@@H]1CCN(c3cncc(C(F)F)c3)C1)C2` [Example 15, (3-chloro-2,4-dimethyl-5,7-dihydropyrrolo[3,4-b]pyridin-6-yl)-[(3R)-1-[5-(difluoromethyl)-3-pyridyl]pyrrolidin-3-yl]methanone], for which the concentration for a half-maximal effect (EC50) in experiment [1] is 306 nM; in experiment [2], 346 nM.

As to `COc1cc(N2CC[C@@H](C(=O)N3Cc4nc(C)c(Cl)c(C)c4C3)C2)ncn1` [Example 29, (3-chloro-2,4-dimethyl-5,7-dihydropyrrolo[3,4-b]pyridin-6-yl)-[(3R)-1-(6-methoxypyrimidin-4-yl)pyrrolidin-3-yl]methanone], the concentration for a half-maximal effect (EC50) in experiment [1] worked out at 591 nM; in experiment [2], 951 nM.
